{"source": "patent US12121540B2", "about": "“CBL inhibitors and compositions for use in adoptive cell therapy” (Nurix Therapeutics, Inc., priority 2019, dated 2024)", "key": {"[1]": {"system": "human T cells from peripheral blood mononuclear cells", "assay": "Expansion of CMV pp65 reactive T cells from peripheral blood mononuclear cells", "format": "cell-based", "conditions": "for Expansion of T cells from PBMC, total cell number relative to IL-2 alone: day 11", "source_text": "At day eleven, cells were pooled and counted, and immunophenotyped at day 11 by flow cytometry by measuring expression of lineage (CD4, CD8) and differentiation (including CD45RA, CD45RO, CD95, CCR7, CD62L, TCF1, PD-1, TIM3, LAG3) markers."}, "CD4/8+ T cells": {"system": "CD4/8+ T cells", "assay": "Intracellular IFN-γ after PMA/ionomycin stimulation of expanded T cells", "format": "cell-based, human", "conditions": "IL-2 and Cbl inhibitor expanded T cells; PMA/ionomycin 6 h", "experimental": "T cell activity was determined by analysis of cytokine secretion. To investigate whether these expanded T cells are capable of responding to extracellular stimulation, T cells were stimulated with 25 ng/mL phorbol myristate acetate (PMA) and 0.5 μM ionomycin. After 90 min of stimulation, monensin, 1:50, (GolgiStop, BD Biosciences) was added. After 6 h, cells were stained for surface expression of CD4+, CD8+, CD45RA+, CD95+, CCR7+, CD62L+, and subsequently, fixed, permeabilized and stained for intracellular cytokine, IFN-γ."}, "OT-1 cells [2]": {"system": "OT-1 cells", "assay": "Re-stimulation of harvested splenocytes with OVA Class I peptide", "format": "cell-based, mouse", "experimental": "The expanded OT-1 cells were characterized by FACS analysis and transferred into E.G7-OVA mice, which bear ovalbumin (OVA) expressing tumors. Following in vivo transfer of expanded OT-1 cells, antitumor response was monitored over time and the quality and quantity of immune response was assessed at various time points. Analysis included FACS analysis on blood, tumor, and spleen samples. Analysis also included re-stimulation of splenocytes with OVA Class I peptide to evaluate the multifunctionality of the antigen-specific effector T cells.\nExpanded OT-1 cells were assessed from splenocytes 11 days after transfer. Harvested splenocytes were re-stimulated with OVA Class I peptide for 72 hours.\nExpanded OT-1 cells were assessed from splenocytes 11 days after transfer. Harvested splenocytes were re-stimulated with OVA Class I peptide for 4 hours.\nExpanded OT-1 cells were assessed from splenocytes 11 days after transfer. Harvested splenocytes were re-stimulated with OVA Class I peptide for 24 hours."}, "OT-1 cells [3]": {"system": "OT-1 cells", "assay": "Tumor re-challenge of long term survivors 149 days after OT-1 transfer", "format": "in vivo, mouse", "source_text": "To determine whether OT-1 cells are capable of long-term tumor protection, the long term survivors of the above experiment (FIG. 12) were re-challenged with a lethal dose of E.G7-OVA tumor cells 149 days after the initial adoptive transfer of the in vitro expanded OT-1 cells. Re-challenge induced OT-1 cell expansion at the site engrafted with E.G7-OVA tumor cells expressing ovalbumin antigen, thereby effectively controlling tumor growth (FIG. 21)."}, "[4]": {"system": "TIL from human ovarian, colon and breast cancer tissues", "assay": "Phenotype of TIL expanded in 24 well or GREX10 format (flow cytometry)", "format": "cell-based", "experimental": "Initial studies involved TIL expansion with ovarian and CRC tumor tissues (average about 0.5-0.8 g). These were fragmented into multiple pieces (approximately 2 mm^3 in size), and one fragment was added per 24 well plate. […] The wells were then pooled by treatment and total cell numbers were assessed by flow cytometry. Following TIL expansion the phenotypes of the cells were characterized. They were majority CD45RO+ and CD4+ and CD8+.\nTIL directly derived from fresh ovarian and colon cancer tissues (fresh, n=8) obtained after 28 days' ex vivo culture of cancer tissue fragments were analyzed by flow cytometry. FIG. 24 provides FACS data showing percentages of central memory(CD45RO+CCR7+) and effector memory (CD45RO+CCR7−) phenotype among CD8+CD45RO+, respectively. FACS results expressed as the mean±SEM. Statistical significance calculated using two-tailed Wilcoxon signed-rank test (*, p<0.05). The CD8 T cells were further characterized by assessing T cell differentiation phenotypic markers; CCR7 and CD45RO. […] This indicates the expansion of a less differentiated, persistent T cell.\nTIL directly derived from fresh ovarian, colon and breast cancer tissues (fresh, n=7) obtained after 14 days' ex vivo culture of cancer tissue fragments were analyzed by flow cytometry. FIG. 26 provides FACS data showing percentages of central memory […] phenotype among CD8+CD45RO+, respectively. FACS results were expressed as the mean±SEM."}, "CD8+ and CD4+ TIL": {"system": "CD8+ and CD4+ TIL", "assay": "CD107a and granzyme B in TIL after anti-CD3/CD28 stimulation", "format": "cell-based, human", "experimental": "In the context of cytotoxicity, granzyme B (Grb), a protease secreted to mediate apoptosis, was assessed."}, "breast TIL": {"system": "breast TIL", "assay": "CDR3 diversity of expanded breast TIL (iRepertoire sequencing)", "format": "cell-based, human", "conditions": "compound 103 alone or with high dose IL-2; 14 days in GREX10", "experimental": "TIL were cultured for 14 days in GREX10. […] The raw data were analyzed by iRepertoire using IRmap programs with a modified Smith-Waterman algorithm. Using CDR3 algerbra software, the calculation of shared CDR3s across samples with the indicated treatment was assessed. […] All CDR3 frequencies were scaled to 10 million reads to account for differences in read depth among samples. Data was normalized so that each uCDR3-VDJ combination was treated as a quantity of 1 regardless of read count, and then analyzed for V usage and J usage."}, "[5]": {"conditions": "Cbl inhibitor expanded, 4 hours restimulation"}, "[6]": {"conditions": "6000 IU IL-2 + 1 uM compound 103, 28 days, 24 well"}, "[7]": {"conditions": "IL-2 + compound 103, upon stimulation"}, "[8]": {"conditions": "expanded with IL2 + compound 103, anti-CD3/CD28 6 hours"}}, "data": [{"compound": "C[C@@H]1CN(Cc2cc3c(c(C(F)(F)F)c2)CN(c2cccc(C4(Cc5nncn5C)COC4)c2)C3=O)CCC1(F)F", "note": "[compound 103]", "values": [{"measurement": "Expansion of T cells", "setting": "[1]; Cbl inhibitor in the absence of IL-2", "value": "considerable expansion of T cells"}, {"measurement": "Expansion of T cells from PBMC, total cell number relative to IL-2 alone", "setting": "[1]; Donor 1, 0.1 μM Cbl-i", "value": 12, "unit": "%"}, {"measurement": "Expansion of T cells from PBMC, total cell number relative to IL-2 alone", "setting": "[1]; Donor 1, 1.0 μM Cbl-i", "value": 12, "unit": "%"}, {"measurement": "Expansion of T cells from PBMC, total cell number relative to IL-2 alone", "setting": "[1]; Donor 1, 10 μM Cbl-i", "value": 44, "unit": "%"}, {"measurement": "Expansion of T cells from PBMC, total cell number relative to IL-2 alone", "setting": "[1]; Donor 1, IL-2 + 0.1 μM Cbl-i", "value": 614, "unit": "%"}, {"measurement": "Expansion of T cells from PBMC, total cell number relative to IL-2 alone", "setting": "[1]; Donor 1, IL-2 + 1.0 μM Cbl-i", "value": 1007, "unit": "%"}, {"measurement": "Expansion of T cells from PBMC, total cell number relative to IL-2 alone", "setting": "[1]; Donor 1, IL-2 + 10 μM Cbl-i", "value": 898, "unit": "%"}, {"measurement": "Expansion of T cells from PBMC, total cell number relative to IL-2 alone", "setting": "[1]; Donor 2, 0.1 μM Cbl-i", "value": 70, "unit": "%"}, {"measurement": "Expansion of T cells from PBMC, total cell number relative to IL-2 alone", "setting": "[1]; Donor 2, 1.0 μM Cbl-i", "value": 95, "unit": "%"}, {"measurement": "Expansion of T cells from PBMC, total cell number relative to IL-2 alone", "setting": "[1]; Donor 2, 10 μM Cbl-i", "value": 45, "unit": "%"}, {"measurement": "Expansion of T cells from PBMC, total cell number relative to IL-2 alone", "setting": "[1]; Donor 2, IL-2 + 0.1 μM Cbl-i", "value": 2059, "unit": "%"}, {"measurement": "Expansion of T cells from PBMC, total cell number relative to IL-2 alone", "setting": "[1]; Donor 2, IL-2 + 1.0 μM Cbl-i", "value": 170, "unit": "%"}, {"measurement": "Expansion of T cells from PBMC, total cell number relative to IL-2 alone", "setting": "[1]; Donor 2, IL-2 + 10 μM Cbl-i", "value": 2161, "unit": "%"}, {"measurement": "Expansion of T cells from PBMC, total cell number relative to IL-2 alone", "setting": "[1]; Donor 3, 0.1 μM Cbl-i", "value": 175, "unit": "%"}, {"measurement": "Expansion of T cells from PBMC, total cell number relative to IL-2 alone", "setting": "[1]; Donor 3, 1.0 μM Cbl-i", "value": 75, "unit": "%"}, {"measurement": "Expansion of T cells from PBMC, total cell number relative to IL-2 alone", "setting": "[1]; Donor 3, 10 μM Cbl-i", "value": 38, "unit": "%"}, {"measurement": "Expansion of T cells from PBMC, total cell number relative to IL-2 alone", "setting": "[1]; Donor 3, IL-2 + 0.1 μM Cbl-i", "value": 3622, "unit": "%"}, {"measurement": "Expansion of T cells from PBMC, total cell number relative to IL-2 alone", "setting": "[1]; Donor 3, IL-2 + 1.0 μM Cbl-i", "value": 2145, "unit": "%"}, {"measurement": "Expansion of T cells from PBMC, total cell number relative to IL-2 alone", "setting": "[1]; Donor 3, IL-2 + 10 μM Cbl-i", "value": 1151, "unit": "%"}, {"measurement": "CD4/8+ T cells capable of producing IFN-γ", "setting": "CD4/8+ T cells", "value": "greater than 85%"}, {"measurement": "Exhaustion markers (PD1 and TIM3) in multifunctional cells vs IL-2 alone", "setting": "OT-1 cells [2]; [5]", "value": "lower level of expression of exhaustion markers"}, {"measurement": "Multifunctionality (IFN-gamma and TNF-alpha double positive cells) vs IL-2 alone", "setting": "OT-1 cells [2]; [5]", "value": "comparable multifunctionality"}, {"measurement": "IL-2 production upon restimulation", "setting": "OT-1 cells [2]; Cbl inhibitor expanded, 24 hours restimulation", "value": "increased IL-2 production upon restimulation"}, {"measurement": "Proliferation in response to peptide restimulation vs IL-2 alone", "setting": "OT-1 cells [2]; Cbl inhibitor expanded, splenocytes 11 days after transfer, 72 hours", "value": "superior intrinsic ability to proliferate"}, {"measurement": "Proliferation in response to peptide restimulation", "setting": "OT-1 cells [2]; expanded with Cbl inhibitor and IL-2, 72 hours", "value": "even greater intrinsic ability to proliferate"}, {"measurement": "Number of OT-1 cells in blood (in vivo persistence)", "setting": "OT-1 cells [3]; 149 days after transfer, expanded with Cbl inhibitor or Cbl inhibitor plus IL-2", "value": "present at a higher number in the blood"}, {"measurement": "Recall response after tumor re-challenge vs IL-2 alone", "setting": "OT-1 cells [3]; OT-1 cells per ml of blood at day 5, Cbl inhibitor or Cbl inhibitor plus IL-2", "value": "significantly more rapid recall response"}, {"measurement": "% CD4 T cells vs IL-2 alone", "setting": "[4]; [6]", "value": "decrease in the % of CD4"}, {"measurement": "CD8 T cells vs IL-2 alone", "setting": "[4]; [6]", "value": "corresponding increase in CD8"}, {"measurement": "Central memory T cells (CCR7+CD45RO+) among CD8 vs IL-2 alone", "setting": "[4]; IL-2 + compound 103, 28 days, FIG. 24", "value": "significant increase of central memory T cells"}, {"measurement": "CD8 T cell expansion (% and total numbers)", "setting": "[4]; IL-2 + compound 103, GREX 10, 14 days", "value": "increased expansion of CD8 T cells"}, {"measurement": "CD107A+GRB+ cells", "setting": "CD8+ and CD4+ TIL; [7]", "value": "significant increase"}, {"measurement": "Granzyme B (Grb) produced in TIL vs IL-2 alone", "setting": "CD8+ and CD4+ TIL; [7]", "value": "significant increase of Grb"}, {"measurement": "CD4+ TIL capable of producing CD107a", "setting": "CD8+ and CD4+ TIL; [8]", "value": "greater than 60%"}, {"measurement": "CD8+ TIL capable of producing CD107a", "setting": "CD8+ and CD4+ TIL; [8]", "value": "greater than 60%"}, {"measurement": "Unique CDR3s", "setting": "breast TIL", "value": "Unique CDR3s increased"}]}]}
